PMC5301252, “A new approach to quantification of mAb aggregates using peptide affinity probes” (Scientific Reports, 2017)

Legend:
[1] = test system: NISTmAb aggregates generated by agitation; experiment: Phage ELISA, binding to aggregated NISTmAb versus control NISTmAb; settings: phage clone displaying the peptide, 2 hours, room temperature
Protocol: (§1) In the second step, a sample of the cross-linked NISTmAb was used as bait to screen a Ph.D.−12 phage display peptide library. The bait represents a mixture of monomer and cross-linked aggregated NISTmAb; this was also the only occasion when cross-linked sample was used. Phage display panning was performed in a subtractive manner. The library was initially depleted with control non-aggregated NISTmAb using three iterative cycles. The unbound phage was then screened on cross-linked NISTmAb aggregates, again using three iterative cycles of phage binding, elution, and amplification. After these rounds of panning, the single phage plaques were randomly picked up and amplified, and phage DNA was submitted for sequencing. In parallel, the ability to bind NISTmAb aggregates was evaluated using phage enzyme-linked immunosorbent assay (ELISA) for all selected phage clones. […] Clones #1 and #4 show respectively 9-fold and 7-fold better binding toward aggregated NISTmAb, compared to their binding toward control non-aggregated NISTmAb. […]
(§2) To assess the binding ability of the selected phages toward NISTmAb aggregates, 1 × 10^10 pfu of P02-C06 phage was incubated with 50 μg of NISTmAb aggregates at room temperature for 2 hours. […] Tetramethybezidine substrate reagent (eBioscience, San Diego, CA) was subsequently added and absorbance was read at 450 nm.

[2] = test system: control non-aggregated NISTmAb; experiment: Phage ELISA, binding to control NISTmAb; settings: phage clone displaying the peptide; 2 hours, room temperature; absorbance 450 nm; three analytical replicates
Protocol: as §1, §2

## GNNPLHVHHDKRGGG [P02-C04]
[1]; aggregated vs control NISTmAb, absorbance 450 nm
  binding preference: preferential binding to NISTmAb aggregates
[1]; 1 × 10^10 pfu, HRP anti-M13, absorbance 450 nm, three analytical replicates
  fold better binding toward aggregated NISTmAb compared to control non-aggregated NISTmAb: 7 -fold
[2]
  affinity toward non-aggregated NISTmAb, compared to other clones: lowest
